From ChEMBL document CHEMBL2157893, “A potent and orally active antagonist (SM-406/AT-406) of multiple inhibitor of apoptosis proteins (IAPs) in clinical development for cancer treatment” (J Med Chem, 2011)

Legend:
[1] = biological target: T1, E3 ubiquitin-protein ligase XIAP (Homo sapiens, UniProt P98170); experiment: Binding affinity to His6-tagged human XIAP BIR3 domain expressed in Escherichia coli BL21(DE3) assessed as dissociation constant after 2 to 3 hrs by fluorescence polarization assay
[2] = biological target: Baculoviral IAP repeat-containing protein 2 (Homo sapiens, UniProt Q13490); experiment: Binding affinity to human cIAP1 BIR3 domain expressed in Escherichia coli BL21(DE3) assessed as dissociation constant after 2 to 3 hrs by fluorescence polarization assay
Plasma [3] = experiment: Oral bioavailability in human MDA-MB-231 cells xenografted SCID mouse plasma at 30 mg/kg administered as single dose; format: ADME, organism-based; conditions: in vivo
[4] = AUC (0 to t) in human MDA-MB-231 cells xenografted SCID mouse tumor at 100 mg/kg, po administered as single dose; format: ADME, organism-based, Neoplasm; set-up: dose 100 mg/kg, route oral
Plasma [5] = experiment: Half life in human MDA-MB-231 cells xenografted SCID mouse plasma at 10 mg/kg, po administered as single dose; format: ADME, organism-based; set-up: dose 10 mg/kg, route oral; conditions: in vivo
[6] = Tmax in human MDA-MB-231 cells xenografted SCID mouse plasma at 30 mg/kg, po administered as single dose; format: ADME, organism-based; set-up: dose 30 mg/kg, route oral
[7] = Aqueous solubility of the compound; format: physicochemical; conditions: buffer
[8] = Tmax in human MDA-MB-231 cells xenografted SCID mouse tumor at 30 mg/kg, po administered as single dose; format: ADME, organism-based, Neoplasm; set-up: dose 30 mg/kg, route oral
Plasma [9] = experiment: Oral bioavailability in human MDA-MB-231 cells xenografted SCID mouse plasma at 10 mg/kg administered as single dose; format: ADME, organism-based; conditions: in vivo
in vivo [10] = conditions: SCID, mouse, tumor, po, 30 mg/kg
[11] = Tmax in human MDA-MB-231 cells xenografted SCID mouse tumor at 10 mg/kg, iv administered as single dose; format: ADME, organism-based, Neoplasm; set-up: dose 10 mg/kg, route intravenous
[12] = Toxicity in human prostate epithelial cells assessed as induction of cell death at 10 uM after 48 hrs by trypan blue exclusion assay; format: cell-based
[13] = Inhibition of Cytochrome P450; format: ADME
in vivo [14] = conditions: SCID, mouse, tumor, po, 100 mg/kg
Mus musculus [15] = experiment: Toxicity in human MDA-MB-231 cells xenografted in SCID mouse at 200 mg/kg, po administered daily for 5 days/week for 2 to 3 weeks; conditions: in vivo
[16] = Tmax in human MDA-MB-231 cells xenografted SCID mouse tumor at 100 mg/kg, po administered as single dose; format: ADME, organism-based, Neoplasm; set-up: dose 100 mg/kg, route oral
Plasma [17] = experiment: AUC (0 to t) in human MDA-MB-231 cells xenografted SCID mouse plasma at 100 mg/kg, po administered as single dose; format: ADME, organism-based; set-up: dose 100 mg/kg, route oral; conditions: in vivo
[18] = biological target: T1, E3 ubiquitin-protein ligase XIAP; experiment: Competitive inhibition of human XIAP BIR3 domain expressed in Escherichia coli BL21(DE3) after 2 to 3 hrs by fluorescence polarization assay
[19] = biological target: Baculoviral IAP repeat-containing protein 3 (Homo sapiens, UniProt Q13489); experiment: Competitive inhibition of human cIAP2 BIR3 domain expressed in Escherichia coli BL21(DE3) after 2 to 3 hrs by fluorescence polarization assay
in vivo [20] = conditions: SCID, mouse, tumor, iv, 10 mg/kg
Plasma [21] = experiment: AUC (0 to t) in human MDA-MB-231 cells xenografted SCID mouse plasma at 10 mg/kg, po administered as single dose; format: ADME, organism-based; set-up: dose 10 mg/kg, route oral; conditions: in vivo
Plasma [22] = experiment: AUC (0 to t) in human MDA-MB-231 cells xenografted SCID mouse plasma at 30 mg/kg, po administered as single dose; format: ADME, organism-based; set-up: dose 30 mg/kg, route oral; conditions: in vivo
in vivo [23] = conditions: SCID, mouse, tumor, po, 10 mg/kg
Plasma [24] = experiment: Half life in human MDA-MB-231 cells xenografted SCID mouse plasma at 100 mg/kg, po administered as single dose; format: ADME, organism-based; set-up: dose 100 mg/kg, route oral; conditions: in vivo
[25] = AUC (0 to t) in human MDA-MB-231 cells xenografted SCID mouse tumor at 30 mg/kg, po administered as single dose; format: ADME, organism-based, Neoplasm; set-up: dose 30 mg/kg, route oral
Plasma [26] = experiment: Oral bioavailability in human MDA-MB-231 cells xenografted SCID mouse plasma at 100 mg/kg administered as single dose; format: ADME, organism-based; conditions: in vivo
Canis familiaris [27] = species on record: Canis familiaris; experiment: Toxicity in dog assessed as drug tolerability; format: organism-based, Canis lupus familiaris; conditions: in vivo
[28] = AUC (0 to t) in human MDA-MB-231 cells xenografted SCID mouse tumor at 10 mg/kg, iv administered as single dose; format: ADME, organism-based, Neoplasm; set-up: dose 10 mg/kg, route intravenous
[29] = AUC (0 to t) in human MDA-MB-231 cells xenografted SCID mouse tumor at 10 mg/kg, po administered as single dose; format: ADME, organism-based, Neoplasm; set-up: dose 10 mg/kg, route oral
MDA-MB-231 = experiment: cells; conditions: Homo sapiens, MDA-MB-231, 96 h
[30] = Tmax in human MDA-MB-231 cells xenografted SCID mouse plasma at 10 mg/kg, po administered as single dose; format: ADME, organism-based; set-up: dose 10 mg/kg, route oral
Plasma [31] = experiment: AUC (0 to t) in human MDA-MB-231 cells xenografted SCID mouse plasma at 10 mg/kg, iv administered as single dose; format: ADME, organism-based; set-up: dose 10 mg/kg, route intravenous; conditions: in vivo
[32] = Toxicity in human MCF12F cells assessed as induction of cell death at 10 uM after 48 hrs by trypan blue exclusion assay; format: cell-based
Plasma [33] = experiment: Half life in human MDA-MB-231 cells xenografted SCID mouse plasma at 10 mg/kg, iv administered as single dose; format: ADME, organism-based; set-up: dose 10 mg/kg, route intravenous; conditions: in vivo
Plasma [34] = experiment: Half life in human MDA-MB-231 cells xenografted SCID mouse plasma at 30 mg/kg, po administered as single dose; format: ADME, organism-based; set-up: dose 30 mg/kg, route oral; conditions: in vivo
[35] = Tmax in human MDA-MB-231 cells xenografted SCID mouse tumor at 10 mg/kg, po administered as single dose; format: ADME, organism-based, Neoplasm; set-up: dose 10 mg/kg, route oral
SK-OV-3 = experiment: cells; conditions: Homo sapiens, SK-OV-3, 96 h
Rattus norvegicus [36] = experiment: Oral bioavailability in Sprague-Dawley rat at 25 mg/kg; format: ADME, organism-based; conditions: in vivo
Cynomolgus monkey [37] = experiment: AUC (0 to t) in cynomolgus monkey at 2.5 mg/kg, iv; format: ADME, organism-based, Macaca fascicularis, Plasma; set-up: dose 2.5 mg/kg, route intravenous; conditions: in vivo
Canis familiaris [38] = experiment: AUC (0 to t) in beagle dog at 5 mg/kg, iv; format: ADME, organism-based, Canis lupus familiaris, Plasma; set-up: dose 5 mg/kg, route intravenous; conditions: in vivo
Canis familiaris [39] = experiment: Half life in beagle dog at 5 mg/kg, iv; format: ADME, organism-based, Canis lupus familiaris; set-up: dose 5 mg/kg, route intravenous; conditions: in vivo
Mus musculus [40] = experiment: Oral bioavailability in mouse at 30 mg/kg; format: ADME, organism-based; conditions: in vivo
Rattus norvegicus [41] = experiment: Half life in Sprague-Dawley rat at 25 mg/kg, po; format: ADME, organism-based; set-up: dose 25 mg/kg, route oral; conditions: in vivo
Mus musculus [42] = experiment: Half life in mouse at 30 mg/kg, po; format: ADME, organism-based; set-up: dose 30 mg/kg, route oral; conditions: in vivo
Cynomolgus monkey [43] = experiment: Half life in cynomolgus monkey at 2.5 mg/kg, iv; format: ADME, organism-based, Macaca fascicularis; set-up: dose 2.5 mg/kg, route intravenous; conditions: in vivo
Cynomolgus monkey [44] = experiment: Half life in cynomolgus monkey at 5 mg/kg, po; format: ADME, organism-based, Macaca fascicularis; set-up: dose 5 mg/kg, route oral; conditions: in vivo
Canis familiaris [45] = experiment: AUC (0 to t) in beagle dog at 10 mg/kg, po; format: ADME, organism-based, Canis lupus familiaris, Plasma; set-up: dose 10 mg/kg, route oral; conditions: in vivo
Cynomolgus monkey [46] = experiment: Oral bioavailability in cynomolgus monkey at 5 mg/kg; format: ADME, organism-based, Macaca fascicularis; conditions: in vivo
Rattus norvegicus [47] = experiment: AUC (0 to t) in Sprague-Dawley rat at 25 mg/kg, po; format: ADME, organism-based, Plasma; set-up: dose 25 mg/kg, route oral; conditions: in vivo
Mus musculus [48] = experiment: Half life in mouse at 10 mg/kg, iv; format: ADME, organism-based; set-up: dose 10 mg/kg, route intravenous; conditions: in vivo
Rattus norvegicus [49] = experiment: Half life in Sprague-Dawley rat at 5 mg/kg, iv; format: ADME, organism-based; set-up: dose 5 mg/kg, route intravenous; conditions: in vivo
Cynomolgus monkey [50] = experiment: AUC (0 to t) in cynomolgus monkey at 5 mg/kg, po; format: ADME, organism-based, Macaca fascicularis, Plasma; set-up: dose 5 mg/kg, route oral; conditions: in vivo
Canis familiaris [51] = experiment: Half life in beagle dog at 10 mg/kg, po; format: ADME, organism-based, Canis lupus familiaris; set-up: dose 10 mg/kg, route oral; conditions: in vivo
Canis familiaris [52] = experiment: Oral bioavailability in beagle dog at 10 mg/kg; format: ADME, organism-based, Canis lupus familiaris; conditions: in vivo
Mus musculus [53] = experiment: AUC (0 to t) in mouse at 30 mg/kg, po; format: ADME, organism-based, Plasma; set-up: dose 30 mg/kg, route oral; conditions: in vivo
Mus musculus [54] = experiment: AUC (0 to t) in mouse at 10 mg/kg, iv; format: ADME, organism-based, Plasma; set-up: dose 10 mg/kg, route intravenous; conditions: in vivo

CN[C@@H](C)C(=O)N[C@H]1CN(C(=O)CC(C)C)CC[C@H]2CC[C@@H](C(=O)N[C@@H](c3ccccc3)c3cn(CCCCCCCCCCNC(=O)c4ccc(-c5c6ccc(=O)cc-6oc6cc(O)ccc56)c(C(=O)O)c4)nn3)N2C1=O
Kd [1]: 4.4 nM | Kd [2]: 0.7 nM

CN[C@@H](C)C(=O)N[C@H]1CN(C(=O)CC(C)C)CC[C@H]2CC[C@@H](C(=O)NC(c3ccccc3)c3ccccc3)N2C1=O [XEVINAPANT]
F (Plasma [3]): 38% | AUC(0-t) [4]: 57300 ng·h/mL | t1/2 (Plasma [5]): 2.4 h | Tmax [6]: 2 h | solubility [7]: > 50 mg/mL | Tmax [8]: 2 h | F (Plasma [9]): 31% | Cmax (in vivo [10]): 2400 ng/mL | Tmax [11]: 0.25 h | Activity [12]: Non-toxic | inhibition (INH) [13]: Not Active | Cmax (in vivo [14]): 10800 ng/mL | Activity (Mus musculus [15]): Non-toxic | Tmax [16]: 2 h | AUCt (Plasma [17]): 17400 ng·h/mL | IC50 [18]: 225 nM | Ki [18]: 66.4 nM | IC50 [19]: 22.1 nM | Ki [19]: 5.1 nM | Cmax (in vivo [20]): 3600 ng/mL | AUCt (Plasma [21]): 1200 ng·h/mL | AUCt (Plasma [22]): 4300 ng·h/mL | Cmax (in vivo [23]): 260 ng/mL | t1/2 (Plasma [24]): 5.4 h | AUC(0-t) [25]: 9600 ng·h/mL | F (Plasma [26]): 46% | Activity (Canis familiaris [27]): Non-toxic | AUC(0-t) [28]: 8300 ng·h/mL | AUC(0-t) [29]: 1100 ng·h/mL | IC50 (MDA-MB-231): 144 nM | Tmax [30]: 1 h | AUCt (Plasma [31]): 3800 ng·h/mL | Activity [32]: Non-toxic | t1/2 (Plasma [33]): 3 h | t1/2 (Plasma [34]): 2.3 h | Tmax [35]: 1 h | IC50 (SK-OV-3): 142 nM

CN[C@@H](C)C(=O)N[C@H]1CN(C(=O)CC(C)C)CC[C@H]2CC[C@@H](C(=O)NC(c3ccccc3)c3ccccc3)N2C1=O.Cl
F (Rattus norvegicus [36]): 45% | AUCt (Cynomolgus monkey [37]): 17900 ng·h/mL | AUCt (Canis familiaris [38]): 81600 ng·h/mL | t1/2 (Canis familiaris [39]): 16.3 h | F (Mus musculus [40]): 38% | t1/2 (Rattus norvegicus [41]): 1.8 h | t1/2 (Mus musculus [42]): 2.3 h | t1/2 (Cynomolgus monkey [43]): 6.3 h | t1/2 (Cynomolgus monkey [44]): 5.4 h | AUCt (Canis familiaris [45]): 90300 ng·h/mL | F (Cynomolgus monkey [46]): 42% | AUCt (Rattus norvegicus [47]): 2300 ng·h/mL | t1/2 (Mus musculus [48]): 3 h | t1/2 (Rattus norvegicus [49]): 1.4 h | AUCt (Cynomolgus monkey [50]): 13500 ng·h/mL | t1/2 (Canis familiaris [51]): 27.1 h | F (Canis familiaris [52]): 55% | AUCt (Mus musculus [53]): 4300 ng·h/mL | AUCt (Mus musculus [54]): 3800 ng·h/mL
